# Assay results taken from ChEMBL document CHEMBL1201862, “PubChem BioAssay data set” (2004).
# The source made the active and inactive calls.
# Columns and labels:
# Prothrombin = Prothrombin (Bos taurus, UniProt P00735); experiment: thrombin protease inhibitors – biochemical, fluorescence polarization, uHTS hits, dose response (AID 602369); format: functional
# [1] = target: 72 kDa type IV collagenase (Homo sapiens, UniProt P08253); experiment: Dose Response validation of uHTS RPN11 inhibitor hits using a MMP-2 Fluorescence assay.; format: functional
# [2] = target: 26S proteasome non-ATPase regulatory subunit 14 (Homo sapiens, UniProt O00487); experiment: inhibition of proteasome subunit RPN11 – biochemical, fluorescence polarization, uHTS hits, confirmation (AID 602368); format: functional
# [3] = target: T1, Apoptotic protease-activating factor 1 (Homo sapiens, UniProt O14727); format: functional
# T1 sequence (O14727 whole entry): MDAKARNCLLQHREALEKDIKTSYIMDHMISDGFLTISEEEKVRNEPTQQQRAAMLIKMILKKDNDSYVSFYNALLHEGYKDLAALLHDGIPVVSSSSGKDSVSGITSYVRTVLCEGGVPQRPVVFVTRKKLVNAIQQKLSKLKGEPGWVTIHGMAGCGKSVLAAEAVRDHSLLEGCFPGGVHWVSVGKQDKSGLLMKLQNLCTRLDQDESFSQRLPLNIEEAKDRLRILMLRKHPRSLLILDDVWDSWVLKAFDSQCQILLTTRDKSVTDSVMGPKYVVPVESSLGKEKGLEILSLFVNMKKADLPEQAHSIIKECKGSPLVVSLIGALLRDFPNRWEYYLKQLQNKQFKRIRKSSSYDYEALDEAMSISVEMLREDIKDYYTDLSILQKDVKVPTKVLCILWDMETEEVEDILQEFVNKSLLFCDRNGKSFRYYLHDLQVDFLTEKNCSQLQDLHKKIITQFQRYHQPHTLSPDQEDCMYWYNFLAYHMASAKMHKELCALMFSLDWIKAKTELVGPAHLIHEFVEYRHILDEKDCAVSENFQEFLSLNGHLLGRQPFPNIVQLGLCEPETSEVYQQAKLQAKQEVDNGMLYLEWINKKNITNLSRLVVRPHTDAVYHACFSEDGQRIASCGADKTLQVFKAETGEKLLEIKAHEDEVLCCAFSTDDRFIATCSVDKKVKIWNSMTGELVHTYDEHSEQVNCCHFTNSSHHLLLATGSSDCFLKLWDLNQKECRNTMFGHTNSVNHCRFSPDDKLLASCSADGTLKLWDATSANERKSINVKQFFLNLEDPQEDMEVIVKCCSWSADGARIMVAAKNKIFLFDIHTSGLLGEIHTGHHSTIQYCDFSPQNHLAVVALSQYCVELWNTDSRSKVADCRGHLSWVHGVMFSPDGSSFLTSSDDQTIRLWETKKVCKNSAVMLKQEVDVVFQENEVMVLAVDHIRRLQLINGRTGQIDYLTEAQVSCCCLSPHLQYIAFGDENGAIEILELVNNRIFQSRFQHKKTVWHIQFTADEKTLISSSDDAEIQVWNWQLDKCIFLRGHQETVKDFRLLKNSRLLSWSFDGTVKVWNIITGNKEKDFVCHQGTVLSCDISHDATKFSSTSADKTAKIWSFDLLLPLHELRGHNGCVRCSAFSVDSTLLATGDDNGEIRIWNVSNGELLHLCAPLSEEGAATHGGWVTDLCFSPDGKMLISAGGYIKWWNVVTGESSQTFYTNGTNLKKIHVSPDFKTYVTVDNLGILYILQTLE
# [4] = target: T2, DNA repair protein RAD52 homolog (Homo sapiens, UniProt P43351); format: functional, biochemical
# T2 sequence (P43351 whole entry): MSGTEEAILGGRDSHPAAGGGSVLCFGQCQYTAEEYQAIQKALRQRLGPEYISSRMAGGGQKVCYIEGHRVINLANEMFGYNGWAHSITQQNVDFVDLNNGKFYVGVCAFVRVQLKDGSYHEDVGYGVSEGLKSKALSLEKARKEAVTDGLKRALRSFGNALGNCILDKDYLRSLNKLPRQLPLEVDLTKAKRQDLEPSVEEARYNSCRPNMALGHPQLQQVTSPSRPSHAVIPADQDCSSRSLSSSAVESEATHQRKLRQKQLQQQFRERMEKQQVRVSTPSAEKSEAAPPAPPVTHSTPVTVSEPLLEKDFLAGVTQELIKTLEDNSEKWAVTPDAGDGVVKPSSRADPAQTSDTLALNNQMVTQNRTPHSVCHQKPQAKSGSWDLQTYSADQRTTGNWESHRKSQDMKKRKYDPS
# [5] = HIV-1 Vif–A3G interaction blockers – biochemical, TR-FRET, GST-Vif 1-94, biotin-A3G peptide, dose response retest, primary screen (AID 1117319); format: functional;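 further: TR-FRET signal of purified GST-Vif binding a biotinylated A3G peptide; inhibitors lower the FRET signal by blocking Vif and A3G binding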
# [6] = target: T3, DNA repair and recombination protein RAD54-like (Homo sapiens, UniProt Q92698); experiment: RAD54 Holliday junction migration blockers – biochemical, fluorescence, cherry-picked samples, dose series, confirmation (AID 651657); format: functional
# T3 sequence (Q92698 whole entry): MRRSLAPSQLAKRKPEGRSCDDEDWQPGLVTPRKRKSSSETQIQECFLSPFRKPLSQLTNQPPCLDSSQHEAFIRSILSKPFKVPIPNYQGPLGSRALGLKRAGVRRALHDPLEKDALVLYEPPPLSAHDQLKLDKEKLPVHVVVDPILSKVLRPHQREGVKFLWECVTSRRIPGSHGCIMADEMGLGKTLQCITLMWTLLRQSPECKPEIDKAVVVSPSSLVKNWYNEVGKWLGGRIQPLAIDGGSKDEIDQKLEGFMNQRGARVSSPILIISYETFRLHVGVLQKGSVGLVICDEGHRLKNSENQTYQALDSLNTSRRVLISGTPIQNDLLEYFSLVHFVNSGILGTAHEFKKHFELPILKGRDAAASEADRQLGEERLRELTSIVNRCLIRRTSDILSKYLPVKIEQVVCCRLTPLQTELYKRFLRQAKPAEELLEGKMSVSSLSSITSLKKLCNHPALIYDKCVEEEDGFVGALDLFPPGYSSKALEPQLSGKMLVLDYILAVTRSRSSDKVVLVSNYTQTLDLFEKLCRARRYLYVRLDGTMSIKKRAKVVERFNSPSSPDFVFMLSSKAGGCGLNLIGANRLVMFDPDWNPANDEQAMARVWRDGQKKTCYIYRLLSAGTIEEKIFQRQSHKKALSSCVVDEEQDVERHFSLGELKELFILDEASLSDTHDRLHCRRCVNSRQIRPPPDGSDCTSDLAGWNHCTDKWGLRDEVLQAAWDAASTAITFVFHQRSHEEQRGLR
# H4 = experiment: Luminescence Cell-Based Dose Response HTS to Identify Activators of 5'UTR Stem-Loop Driven Prion Protein mRNA Translation in H4 Neuroglioblastoma Cells. [Related pubchem assays: 1829 (Project Summary), 1814 (Primary HTS)]; format: functional; conditions: Homo sapiens
# [7] = Luminescence Cell-Based Dose Response HTS to Identify Activators of Luciferase Translation or Activity in H4 […] Cells. [Related pubchem assays: 1829 (Project Summary), 1814 (Primary HTS)]; format: functional
# [8] = Luminescence Cell-Based Dose Confirmation HTS to Identify Activators of 5'UTR Stem-Loop Driven Alpha-Synuclein mRNA Translation in H4 Neuroglioblastoma Cells. [Related pubchem assays: 1829 (Project Summary), 1814 (Primary HTS)]; format: functional
# [9] = inhibitors acting on PAX2 in cells – cell-based, plate reader, dry powder samples, selectivity assay for PAX8 inhibitor project, dose response (AID 743048); format: functional;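 further: HEK293 cells carrying a WT1 promoter luciferase reporter driven by expressed Pax2; potency is for inhibition of Pax2 driven reporter signal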
# [10] = PAX8-dependent cell viability loss – plate reader, dry powder, dose response (AID 743049); format: functional, cell-based
# Paired box protein Pax-8 = Paired box protein Pax-8 (Homo sapiens, UniProt Q06710); experiment: PAX8 transcriptional activity inhibition in RMG-I – RMG-I cells, luciferase, cherry-pick, dose response (AID 687027); format: functional, cell-based;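 further: luciferase reporter driven by Pax8 target thyroperoxidase promoter measured by SteadyGlo luminescence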
# [11] = OVCAR8 cell viability loss – plate reader, dry powder samples, PAX8 project, dose response (AID 743197); format: functional, cell-based; conditions: OVCAR-8
# Fatty acid synthase [12] = target: T4, Fatty acid synthase (Homo sapiens, UniProt P49327); experiment: inhibition of human FAS-TE enzyme activity – biochemical, kinetic fluorescence intensity, dose response (AID 624326); format: functional;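 further: rate of fluorescence rise from hydrolysis of a fluorogenic O-methyl fluorescein ester substrate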
# Fatty acid synthase [13] = target: T4, Fatty acid synthase; experiment: inhibition of human FAS-TE enzyme activity – biochemical, endpoint fluorescence intensity, uHTS hits, dose response (AID 624327); format: functional;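 further: fluorescence from hydrolysis of an O-methyl fluorescein acyl ester substrate by the enzyme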
# [14] = target: Heat shock protein HSP 90-alpha (Homo sapiens, UniProt P07900); format: functional, organism-based
# H9c2 = experiment: cells; format: functional, cell-based; conditions: Rattus norvegicus, H9c2, Myocardium;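 further: confirmatory concentration-response retest of ultra-high-throughput screening hits for modulation of myocardial damage; cell death induced by hydrogen peroxide oxidative stress; compound pretreatment for 60 min then peroxide exposure for 2 h; potency is for protecting the cells against peroxide damage rather than for killing them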
# 72 kDa type IV collagenase, sequence (P08253 whole entry): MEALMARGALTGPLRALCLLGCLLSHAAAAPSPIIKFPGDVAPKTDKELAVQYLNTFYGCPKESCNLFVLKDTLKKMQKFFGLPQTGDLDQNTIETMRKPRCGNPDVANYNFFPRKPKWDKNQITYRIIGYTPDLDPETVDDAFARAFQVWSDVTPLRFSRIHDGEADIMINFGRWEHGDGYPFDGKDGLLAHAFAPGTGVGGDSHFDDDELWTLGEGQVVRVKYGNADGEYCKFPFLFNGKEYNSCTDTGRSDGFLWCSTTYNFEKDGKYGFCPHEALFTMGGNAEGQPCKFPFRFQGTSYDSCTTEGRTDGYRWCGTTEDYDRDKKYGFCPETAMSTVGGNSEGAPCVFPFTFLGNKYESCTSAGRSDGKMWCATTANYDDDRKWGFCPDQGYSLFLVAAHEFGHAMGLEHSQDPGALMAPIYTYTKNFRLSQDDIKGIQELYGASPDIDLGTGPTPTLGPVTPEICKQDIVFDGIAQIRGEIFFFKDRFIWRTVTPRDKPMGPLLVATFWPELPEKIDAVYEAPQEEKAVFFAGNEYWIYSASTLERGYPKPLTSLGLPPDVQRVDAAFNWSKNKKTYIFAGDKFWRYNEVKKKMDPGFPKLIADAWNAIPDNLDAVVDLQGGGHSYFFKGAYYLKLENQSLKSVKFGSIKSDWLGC
# 26S proteasome non-ATPase regulatory subunit 14, sequence (O00487 whole entry): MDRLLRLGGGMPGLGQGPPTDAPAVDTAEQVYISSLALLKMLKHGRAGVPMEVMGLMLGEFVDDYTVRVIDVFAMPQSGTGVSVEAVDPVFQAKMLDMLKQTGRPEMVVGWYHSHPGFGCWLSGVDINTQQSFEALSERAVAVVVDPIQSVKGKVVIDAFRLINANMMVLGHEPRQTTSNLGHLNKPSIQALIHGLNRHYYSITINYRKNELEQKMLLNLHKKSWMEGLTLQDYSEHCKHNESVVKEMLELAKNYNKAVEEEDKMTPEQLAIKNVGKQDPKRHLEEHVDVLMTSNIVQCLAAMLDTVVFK
# T4 sequence (P49327 whole entry): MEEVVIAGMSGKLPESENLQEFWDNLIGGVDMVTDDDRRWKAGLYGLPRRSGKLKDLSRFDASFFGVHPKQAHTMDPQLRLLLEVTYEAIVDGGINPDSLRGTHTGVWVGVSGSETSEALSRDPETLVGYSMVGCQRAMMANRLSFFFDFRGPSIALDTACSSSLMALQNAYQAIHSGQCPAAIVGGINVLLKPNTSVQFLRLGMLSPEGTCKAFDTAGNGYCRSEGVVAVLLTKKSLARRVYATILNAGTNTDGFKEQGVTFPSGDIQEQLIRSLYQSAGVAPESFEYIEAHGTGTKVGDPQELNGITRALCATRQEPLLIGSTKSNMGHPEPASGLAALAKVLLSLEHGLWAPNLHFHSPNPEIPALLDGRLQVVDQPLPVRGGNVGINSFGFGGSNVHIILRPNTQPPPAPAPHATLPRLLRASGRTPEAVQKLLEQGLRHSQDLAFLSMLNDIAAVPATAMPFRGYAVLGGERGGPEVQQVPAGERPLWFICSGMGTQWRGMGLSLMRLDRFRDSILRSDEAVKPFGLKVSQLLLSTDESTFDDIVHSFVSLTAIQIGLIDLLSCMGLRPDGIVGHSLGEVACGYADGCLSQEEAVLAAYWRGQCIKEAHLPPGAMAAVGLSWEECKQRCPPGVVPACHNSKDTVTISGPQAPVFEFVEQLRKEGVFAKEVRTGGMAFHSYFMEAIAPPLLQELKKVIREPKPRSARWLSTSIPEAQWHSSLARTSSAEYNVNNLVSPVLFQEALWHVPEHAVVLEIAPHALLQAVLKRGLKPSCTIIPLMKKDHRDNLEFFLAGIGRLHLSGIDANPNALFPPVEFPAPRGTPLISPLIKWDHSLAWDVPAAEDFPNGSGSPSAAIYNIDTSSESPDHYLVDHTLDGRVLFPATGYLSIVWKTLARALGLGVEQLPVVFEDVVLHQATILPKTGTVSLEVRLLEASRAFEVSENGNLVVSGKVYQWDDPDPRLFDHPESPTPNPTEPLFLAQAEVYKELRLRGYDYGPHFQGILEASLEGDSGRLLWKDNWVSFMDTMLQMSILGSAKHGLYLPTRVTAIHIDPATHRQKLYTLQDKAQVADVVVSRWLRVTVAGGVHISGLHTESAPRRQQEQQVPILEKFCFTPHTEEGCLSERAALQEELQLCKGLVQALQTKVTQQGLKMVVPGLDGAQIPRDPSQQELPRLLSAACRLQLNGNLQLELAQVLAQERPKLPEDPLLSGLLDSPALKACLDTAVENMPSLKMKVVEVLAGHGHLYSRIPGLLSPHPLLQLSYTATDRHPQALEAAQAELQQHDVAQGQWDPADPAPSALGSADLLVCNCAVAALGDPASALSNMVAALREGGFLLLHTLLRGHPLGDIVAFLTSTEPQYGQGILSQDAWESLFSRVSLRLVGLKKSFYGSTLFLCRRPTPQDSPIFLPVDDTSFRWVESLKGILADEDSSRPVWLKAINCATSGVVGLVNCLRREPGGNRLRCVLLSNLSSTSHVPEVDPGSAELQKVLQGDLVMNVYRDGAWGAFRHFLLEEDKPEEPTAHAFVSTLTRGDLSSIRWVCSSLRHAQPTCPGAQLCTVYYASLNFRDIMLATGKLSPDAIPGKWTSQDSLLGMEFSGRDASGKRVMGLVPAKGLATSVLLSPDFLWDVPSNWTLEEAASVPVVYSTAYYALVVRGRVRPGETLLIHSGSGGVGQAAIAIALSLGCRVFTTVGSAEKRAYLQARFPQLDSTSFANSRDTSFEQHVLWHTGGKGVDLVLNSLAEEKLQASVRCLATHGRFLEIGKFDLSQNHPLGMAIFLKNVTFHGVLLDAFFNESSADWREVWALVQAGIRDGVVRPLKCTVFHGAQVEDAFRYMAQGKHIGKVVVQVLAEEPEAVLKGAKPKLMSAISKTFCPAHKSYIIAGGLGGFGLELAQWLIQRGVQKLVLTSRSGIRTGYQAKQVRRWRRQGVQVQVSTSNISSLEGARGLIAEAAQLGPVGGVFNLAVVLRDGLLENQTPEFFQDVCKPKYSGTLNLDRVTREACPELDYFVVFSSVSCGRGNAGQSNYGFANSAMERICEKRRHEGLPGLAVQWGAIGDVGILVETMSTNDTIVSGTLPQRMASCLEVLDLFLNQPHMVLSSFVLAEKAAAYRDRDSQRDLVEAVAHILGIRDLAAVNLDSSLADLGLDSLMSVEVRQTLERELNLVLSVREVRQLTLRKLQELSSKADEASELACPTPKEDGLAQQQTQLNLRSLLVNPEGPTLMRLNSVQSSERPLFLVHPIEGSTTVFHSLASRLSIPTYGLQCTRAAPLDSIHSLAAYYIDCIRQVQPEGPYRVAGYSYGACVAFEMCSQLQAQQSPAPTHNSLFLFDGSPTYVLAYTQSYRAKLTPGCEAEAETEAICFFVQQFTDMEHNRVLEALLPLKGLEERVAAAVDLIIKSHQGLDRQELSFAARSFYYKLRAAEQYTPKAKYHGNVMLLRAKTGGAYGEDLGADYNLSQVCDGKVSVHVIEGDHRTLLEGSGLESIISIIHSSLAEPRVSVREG
# Paired box protein Pax-8, sequence (Q06710 whole entry): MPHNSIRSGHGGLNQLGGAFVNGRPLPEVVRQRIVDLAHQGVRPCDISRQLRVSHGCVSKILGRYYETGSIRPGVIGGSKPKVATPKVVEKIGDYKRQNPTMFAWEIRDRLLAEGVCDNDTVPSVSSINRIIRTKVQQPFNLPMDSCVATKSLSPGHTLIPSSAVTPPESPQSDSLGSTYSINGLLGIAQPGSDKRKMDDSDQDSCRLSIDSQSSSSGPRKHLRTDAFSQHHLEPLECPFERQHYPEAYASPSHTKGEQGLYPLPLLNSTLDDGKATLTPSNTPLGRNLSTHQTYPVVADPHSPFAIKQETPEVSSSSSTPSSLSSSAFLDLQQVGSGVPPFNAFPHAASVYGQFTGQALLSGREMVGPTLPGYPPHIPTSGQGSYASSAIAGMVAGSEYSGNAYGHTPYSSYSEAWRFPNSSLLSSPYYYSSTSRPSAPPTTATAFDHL
structure (smiles),measurement,setting,value
CCc1nc2oc3ccccc3c(=O)c2c(=O)n1-c1ccc(C)cc1,IC50,Prothrombin,87.5 µM (active)
same,IC50,[1],> 100 µM (inactive)
same,IC50,[2],24.5 µM (active)
CCOC(=O)c1c(CN(C)C)n(C)c2c(O)c(N=NC(N)=O)c3ccc(Br)cc3c12,IC50,[3],12.1 µM (active)
same,AC50,[4],11.6 µM (active)
Cc1csc(N2CCN(c3cc4c(cc3Cl)nc(-c3ccncc3)n4CCCN3CCCC3)CC2)n1,AC50,[4],4.61 µM (active)
CCN1C(=O)N(CC)C(=O)C2(Cc3ccccc3N3CCN(c4ccccc4)CC32)C1=O (centres undefined),IC50,[5],> 100 µM (active)
O=C(NCCCN1CCOCC1)c1cnn2c(-c3ccccc3)cc(-c3ccccc3)nc12,AC50,[6],27 µM (active)
CC1(C)Oc2ccc(C(=O)NC3CCCC3)cc2N(CC(=O)N2CCOCC2)C1=O,IC50,[5],> 100 µM (active)
CCOc1ccc2nc(NC(=O)Cn3[nH]c(=O)c4ccccc4c3=O)sc2c1,EC50,H4,54.3 µM (active)
same,IC50,Prothrombin,90.4 µM (active)
same,IC50,[1],> 100 µM (inactive)
same,EC50,[7],5.14 µM (active)
same,IC50,[2],39.7 µM (active)
same,EC50,[8],> 120 µM (not active)
COc1ccc(S(=O)(=O)Nc2ccc3c(c2)CC(=O)N([C@@H](C)CO)C[C@@H](C)[C@@H](CN(C)Cc2ccc(-c4ccccc4)cc2)O3)cc1,AC50,[9],42 µM (active)
same,AC50,[10],44.2 µM (active)
same,AC50,Paired box protein Pax-8,24.6 µM (active)
same,AC50,[11],> 70 µM (inactive)
CC1(C)CCN(Cc2ccccc2)C1CC#N (centres undefined),IC50,[5],> 100 µM (active)
Cc1ccc(C(=O)NCC(=O)OCc2nnc(-c3ccc([N+](=O)[O-])cc3)o2)s1,IC50,Fatty acid synthase [12],12.7 µM (active)
same,IC50,Fatty acid synthase [13],15.1 µM (active)
CCN(CC)CCCN(C(=O)c1ccc(Br)cc1)c1nc(-c2ccc(OC)cc2)cs1,AC50,[4],17.2 µM (active)
CCc1cc2c(=O)n(-c3ccc(C)cc3)cnc2s1,IC50,[5],> 100 µM (active)
CCc1nc2c(OCc3ccc(Cl)cc3Cl)cccn2c1N(C=O)Cc1ccc(OC)cc1,IC50,Fatty acid synthase [12],1.46 µM (active)
same,IC50,Fatty acid synthase [13],2.45 µM (active)
Cc1cc(N=Nc2ccccc2C(=O)O)c(C)c(C)c1O,AC50,[14],4.36 µM (active)
same,IC50,Prothrombin,34.2 µM (active)
same,IC50,[1],43.4 µM (active)
same,IC50,[2],25.4 µM (active)
COc1ccc(CCn2c(=N)c(C(=O)NCC3CCCO3)cc3c(=O)n4cccc(C)c4nc32)cc1OC (centres undefined),IC50,H9c2,> 79 µM (inactive)
same,AC50,[6],14.4 µM (active)
O=C(NCCCCc1ccccc1)c1cccc([N+](=O)[O-])c1,IC50,Fatty acid synthase [12],8.43 µM (active)
same,IC50,Fatty acid synthase [13],11.1 µM (active)
CN(C)CCCNc1nc2cc(-c3ccc(C(=O)N4CCN(C)CC4)cc3)sc2c(=O)n1C,AC50,[6],47.7 µM (active)
COc1ccc(-c2nc3nc(C)c(Cc4ccccc4)c(O)n3n2)cc1,IC50,[3],30.6 µM (active)
COc1ccc(NCc2nnc(SCC(=O)N3CCCc4ccccc43)o2)cc1,IC50,[5],> 100 µM (active)
CCN(Cc1ccccc1)C(=O)c1cnc2ccc(S(=O)(=O)N(C)CCC#N)cc2c1O,IC50,Fatty acid synthase [12],7.6 µM (active)
same,IC50,Fatty acid synthase [13],12 µM (active)
